Measurements: patent US20250074895A1, “CDK2 INHIBITORS AND METHODS OF MAKING AND USING SAME” (BLUEPRINT MEDICINES CORPORATION, priority 2021, published 2025)

Tests used:
CDK2/Cyclin E = CDK2/Cyclin E (Homo sapiens (Human), UniProt P24941); assay: Biochemical CDK inhibition assay (Caliper mobility shift), CDK2/Cyclin E; details: 1.0 mM ATP or ATP Km, 1.25 nM enzyme, apparent IC50, read-out: CDK2/cyclin E1 IC50
Description: (§1) Inhibitory effects of the compounds of the disclosure were measured in biochemical assays that measure the enzymatic phosphorylation activity of CDK enzyme in complex of Cyclin proteins phosphorylates 7.5 micromolar fluorescently labelled peptide substrate, 5-FAM-QSPKKG-CONH2, (FL-Peptide 18, Perkin Elmer, 760362) in the presence of adenosine-5′-triphosphate (ATP) and varying concentrations of the test compound in 100 mM 2-[4-(2-hydroxyethyl)piperazin-1-yl]ethanesulfonic acid (HEPES), pH 7.5, 10 mM MgCl2, 0.015% Brij-35, 1 mM dithiothreitol (DTT), 1.0% dimethylsulfoxide (DMSO). Assays were performed at 1.0 mM ATP or at ATP Km of the CDK enzymes in complex with Cyclin proteins. Reactions proceeded until between 10% to 20% total peptides were phosphorylated at room temperature (25° C.) and were terminated with 35 mM 2,2′,2″,2′″-(ethane-1,2-diyldinitrilo)tetraacetic acid (EDTA). Product was detected using the Caliper mobility shift detection method where the phosphorylated peptide (product) and substrate were electrophoretically separated and measured. Percent activity was plotted against log concentration of compound and points to generate an apparent IC50. The following CDK enzymes in complex with different cyclin proteins were used in these assays: • CDK1/Cyclin B1, GST-tag (BPS, 40454), 1.5 nM used in the assay • CDK2/Cyclin E (Eurofins, 14-475), 1.25 nM used in the assays
(§2) For inhibitory activity against CDK2/Cyclin […], the following designations are used: ≤10 nM=A; >10-20 nM=B; >20-30 nM=C; >30-100 nM=D and >100=E. For inhibition CDK1/Cyclin B1, GST-tag: ≥500 nM=A; 100-<500 nM=B; <100 nM=C.

CDK1/Cyclin B1, GST-tag = CDK1/Cyclin B1, GST-tag (Homo sapiens (Human), UniProt P06493); assay: Biochemical CDK inhibition assay (Caliper mobility shift), CDK1/Cyclin B1; details: 1.0 mM ATP or ATP Km, 1.5 nM enzyme, apparent IC50
Description: as §1, §2

CDK1/Cyclin B1, GST-tag, sequence (P06493 whole entry): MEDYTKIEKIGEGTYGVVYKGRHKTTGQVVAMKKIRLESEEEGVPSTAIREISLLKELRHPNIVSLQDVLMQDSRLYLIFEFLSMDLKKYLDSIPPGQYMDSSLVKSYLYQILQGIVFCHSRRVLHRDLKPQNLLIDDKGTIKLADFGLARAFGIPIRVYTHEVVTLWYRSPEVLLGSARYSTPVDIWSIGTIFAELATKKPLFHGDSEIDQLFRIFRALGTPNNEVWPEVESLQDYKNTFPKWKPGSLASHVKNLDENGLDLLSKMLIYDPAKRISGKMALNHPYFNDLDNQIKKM
CDK1/Cyclin B1, GST-tag, sequence (P14635 whole entry partner): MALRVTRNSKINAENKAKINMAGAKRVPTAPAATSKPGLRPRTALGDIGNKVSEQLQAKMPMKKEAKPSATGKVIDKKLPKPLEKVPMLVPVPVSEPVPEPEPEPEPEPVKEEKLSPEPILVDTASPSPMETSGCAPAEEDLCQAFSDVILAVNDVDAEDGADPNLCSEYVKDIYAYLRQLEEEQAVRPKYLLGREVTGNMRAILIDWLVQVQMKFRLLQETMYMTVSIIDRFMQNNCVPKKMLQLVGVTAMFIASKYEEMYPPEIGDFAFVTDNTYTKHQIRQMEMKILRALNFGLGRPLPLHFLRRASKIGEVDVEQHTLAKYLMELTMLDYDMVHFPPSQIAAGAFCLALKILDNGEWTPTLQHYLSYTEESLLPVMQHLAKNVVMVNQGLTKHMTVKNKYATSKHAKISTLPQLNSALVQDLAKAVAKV

IC50 (CDK2/Cyclin E) | IC50 (CDK1/Cyclin B1, GST-tag) | Structure (SMILES)
≤ 10 nM | < 100 nM | CC(C)(O)c1cnc(Nc2cc([C@H]3CC[C@@H](OC(=O)N4CCC4(C)C)C3)[nH]n2)cn1 [Example 50, (1R,3S)-3-(3-((5-(2-hydroxypropan-2-yl)pyrazin-2-yl)amino)-1H-pyrazol-5-yl)cyclopentyl 2,2-dimethylazetidine-1-carboxylate]
≤ 10 nM | 100 to 500 nM | CC(C)NC(=O)O[C@@H]1CC[C@H](c2cc(Nc3cnc(C#N)cn3)n[nH]2)C1 [Example 53, (1R,3S)-3-(3-((5-cyanopyrazin-2-yl)amino)-1H-pyrazol-5-yl)cyclopentyl isopropylcarbamate]
≤ 10 nM | < 100 nM | CNC(=O)O[C@@H]1CC[C@H](c2cc(Nc3cncc(OCC4CC4)n3)n[nH]2)C1 [Example 56, (1R,3S)-3-(3-((6-(cyclopropylmethoxy)pyrazin-2-yl)amino)-1H-pyrazol-5-yl)cyclopentyl methylcarbamate]
